What was measured:
Format in all cases: in vivo
[1] = tested on: Foxtail, Green; assay: Test A preemergence, directed soil spray, visual injury rating; conditions: 0 is no effect, 100 is complete control
[2] = tested on: barnyardgrass (Echinochloa crus-galli); assay: as above; conditions: 0 is no effect, 100 is complete control
Summary of the method: (§1)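 Injury ratings, 0 (no effect) to 100 (complete control), were scored visually versus untreated plants roughly 10 d after treatment under greenhouse conditions. Treatments used surfactant-containing solvent formulations, sprayed onto soil preemergence or onto one- to two-leaf seedlings (2-10 cm) postemergence, grown in a loam-sand mix.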

[3] = tested on: kochia (Kochia scoparia); assay: as above; conditions: 0 is no effect, 100 is complete control
Summary of the method: as §1

[4] = tested on: pigweed (Amaranthus retroflexus); assay: as above; conditions: 0 is no effect, 100 is complete control
Summary of the method: as §1

[5] = tested on: ragweed (common ragweed, Ambrosia elatior); assay: as above; conditions: 0 is no effect, 100 is complete control
Summary of the method: as §1

[6] = tested on: ryegrass, It. (Italian ryegrass, Lolium multiflorum); assay: as above; conditions: 0 is no effect, 100 is complete control
Summary of the method: as §1

[7] = tested on: barnyardgrass (Echinochloa crus-galli); assay: Test B flooded paddy test, visual rating; conditions: Flood, 250 g ai/ha, applied to paddy water, rated after 13 to 15 d
Summary of the method: (§2)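 Ratings use a 0-100 visual scale, where 100 is complete control, and compare treated plants with controls after 13 to 15 d of greenhouse growth. Compound went straight into paddy water kept 3 cm over the soil surface, applied to seedlings at the 2-leaf stage.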

[8] = tested on: ducksalad (Heteranthera limosa); assay: Test B flooded paddy test, visual rating; conditions: Flood, 250 g ai/ha, applied to paddy water, rated after 13 to 15 d
Summary of the method: as §2

[9] = tested on: rice (Oryza sativa); assay: Test B flooded paddy test, visual rating; conditions: Flood, 250 g ai/ha, applied to paddy water, rated after 13 to 15 d
Summary of the method: as §2

[10] = tested on: sedge, umbrella (small-flower umbrella sedge, Cyperus difformis); assay: Test B flooded paddy test, visual rating; conditions: Flood, 250 g ai/ha, applied to paddy water, rated after 13 to 15 d
Summary of the method: as §2

[11] = tested on: Foxtail, Green; assay: Test A postemergence application, visual injury rating; conditions: 0 to 100 scale, 0 no effect, 100 complete control
[12] = tested on: barnyardgrass (Echinochloa crus-galli); assay: as above; conditions: 0 to 100 scale, 0 no effect, 100 complete control
Summary of the method: as §1

[13] = tested on: blackgrass (Alopecurus myosuroides); assay: as above; conditions: 0 to 100 scale, 0 no effect, 100 complete control
Summary of the method: as §1

[14] = tested on: corn (Zea mays); assay: as above; conditions: 0 to 100 scale, 0 no effect, 100 complete control
Summary of the method: as §1

[15] = tested on: galium (catchweed bedstraw, Galium aparine); assay: as above; conditions: 0 to 100 scale, 0 no effect, 100 complete control
Summary of the method: as §1

[16] = tested on: kochia (Kochia scoparia); assay: as above; conditions: 0 to 100 scale, 0 no effect, 100 complete control
Summary of the method: as §1

[17] = tested on: pigweed (Amaranthus retroflexus); assay: as above; conditions: 0 to 100 scale, 0 no effect, 100 complete control
Summary of the method: as §1

[18] = tested on: ragweed (common ragweed, Ambrosia elatior); assay: as above; conditions: 0 to 100 scale, 0 no effect, 100 complete control
Summary of the method: as §1

[19] = tested on: ryegrass, It. (Italian ryegrass, Lolium multiflorum); assay: as above; conditions: 0 to 100 scale, 0 no effect, 100 complete control
Summary of the method: as §1

[20] = tested on: wheat (Triticum aestivum); assay: as above; conditions: 0 to 100 scale, 0 no effect, 100 complete control
Summary of the method: as §1

CC(=O)Oc1c(C)nn(C)c(=O)c1-c1c(C(F)(F)F)ccc2cc(C)oc12 [Compound 48]
30: Ryegrass, It. plant response rating ([19]; 125 g ai/ha)
70: Kochia plant response rating ([16]; 125 g ai/ha) | Pigweed plant response rating ([17]; 31 g ai/ha) | Ragweed plant response rating ([18]; 31 g ai/ha)
90: Plant response rating (0 to 100 scale), Ragweed ([5]; 125 g ai/ha) | Ragweed plant response rating ([18]; 125 g ai/ha)
10: Plant response rating (0 to 100 scale), Kochia ([3]; 31 g ai/ha) | Plant response rating (0 to 100 scale), Ryegrass, It. ([6]; 31 g ai/ha) | Foxtail, Green plant response rating ([11]; 125 g ai/ha) | Barnyardgrass plant response rating ([12]; 125 g ai/ha)
0: Plant response rating (0 to 100 scale), Foxtail, Green ([1]; 31 g ai/ha) | Plant response rating (0 to 100 scale), Barnyardgrass ([2]; 31 g ai/ha) | Plant response rating (0 to 100 scale), Ragweed ([5]; 31 g ai/ha) | Barnyardgrass plant response rating (0 to 100 scale, 0 is no effect, 100 is complete control) [7] | Ducksalad plant response rating (0 to 100 scale, 0 is no effect, 100 is complete control) [8] | Rice plant response rating (0 to 100 scale, 0 is no effect, 100 is complete control) [9] | Sedge, Umbrella plant response rating (0 to 100 scale, 0 is no effect, 100 is complete control) [10] | Foxtail, Green plant response rating ([11]; 31 g ai/ha) | Barnyardgrass plant response rating ([12]; 31 g ai/ha) | Blackgrass plant response rating ([13]; 31 g ai/ha) | Blackgrass plant response rating ([13]; 125 g ai/ha) | Corn plant response rating ([14]; 31 g ai/ha) | Ryegrass, It. plant response rating ([19]; 31 g ai/ha) | Wheat plant response rating ([20]; 31 g ai/ha) | Wheat plant response rating ([20]; 125 g ai/ha)
50: Kochia plant response rating ([16]; 31 g ai/ha)
100: Plant response rating (0 to 100 scale), Pigweed ([4]; 125 g ai/ha) | Pigweed plant response rating ([17]; 125 g ai/ha)
80: Galium plant response rating ([15]; 31 g ai/ha) | Galium plant response rating ([15]; 125 g ai/ha)
20: Plant response rating (0 to 100 scale), Foxtail, Green ([1]; 125 g ai/ha) | Plant response rating (0 to 100 scale), Barnyardgrass ([2]; 125 g ai/ha) | Plant response rating (0 to 100 scale), Kochia ([3]; 125 g ai/ha) | Plant response rating (0 to 100 scale), Pigweed ([4]; 31 g ai/ha) | Plant response rating (0 to 100 scale), Ryegrass, It. ([6]; 125 g ai/ha) | Corn plant response rating ([14]; 125 g ai/ha)

Cc1cc2ccc(C(F)(F)F)c(-c3c(O)c(C)nn(C)c3=O)c2o1 [Compound 49]
50: Plant response rating (0 to 100 scale), Ryegrass, It. ([6]; 125 g ai/ha)
20: Plant response rating (0 to 100 scale), Ryegrass, It. ([6]; 31 g ai/ha) | Foxtail, Green plant response rating ([11]; 31 g ai/ha) | Corn plant response rating ([14]; 125 g ai/ha)
100: Plant response rating (0 to 100 scale), Pigweed ([4]; 125 g ai/ha) | Pigweed plant response rating ([17]; 125 g ai/ha)
30: Plant response rating (0 to 100 scale), Pigweed ([4]; 31 g ai/ha) | Foxtail, Green plant response rating ([11]; 125 g ai/ha)
90: Plant response rating (0 to 100 scale), Ragweed ([5]; 125 g ai/ha) | Galium plant response rating ([15]; 125 g ai/ha) | Pigweed plant response rating ([17]; 31 g ai/ha) | Ragweed plant response rating ([18]; 125 g ai/ha)
60: Kochia plant response rating ([16]; 31 g ai/ha)
0: Plant response rating (0 to 100 scale), Foxtail, Green ([1]; 31 g ai/ha) | Plant response rating (0 to 100 scale), Foxtail, Green ([1]; 125 g ai/ha) | Plant response rating (0 to 100 scale), Barnyardgrass ([2]; 31 g ai/ha) | Plant response rating (0 to 100 scale), Barnyardgrass ([2]; 125 g ai/ha) | Plant response rating (0 to 100 scale), Kochia ([3]; 31 g ai/ha) | Plant response rating (0 to 100 scale), Ragweed ([5]; 31 g ai/ha) | Barnyardgrass plant response rating (0 to 100 scale, 0 is no effect, 100 is complete control) [7] | Ducksalad plant response rating (0 to 100 scale, 0 is no effect, 100 is complete control) [8] | Rice plant response rating (0 to 100 scale, 0 is no effect, 100 is complete control) [9] | Sedge, Umbrella plant response rating (0 to 100 scale, 0 is no effect, 100 is complete control) [10] | Barnyardgrass plant response rating ([12]; 31 g ai/ha) | Blackgrass plant response rating ([13]; 31 g ai/ha) | Blackgrass plant response rating ([13]; 125 g ai/ha) | Corn plant response rating ([14]; 31 g ai/ha) | Wheat plant response rating ([20]; 31 g ai/ha) | Wheat plant response rating ([20]; 125 g ai/ha)
40: Plant response rating (0 to 100 scale), Kochia ([3]; 125 g ai/ha) | Ryegrass, It. plant response rating ([19]; 125 g ai/ha)
80: Galium plant response rating ([15]; 31 g ai/ha) | Kochia plant response rating ([16]; 125 g ai/ha) | Ragweed plant response rating ([18]; 31 g ai/ha)
10: Barnyardgrass plant response rating ([12]; 125 g ai/ha) | Ryegrass, It. plant response rating ([19]; 31 g ai/ha)

Cc1nn(C)c(=O)c(-c2ccc(Cl)c3ccoc23)c1O [Compound 56]
50: Ryegrass, It. plant response rating ([19]; 31 g ai/ha) | Ryegrass, It. plant response rating ([19]; 125 g ai/ha)
60: Galium plant response rating ([15]; 31 g ai/ha)
10: Plant response rating (0 to 100 scale), Ryegrass, It. ([6]; 31 g ai/ha) | Foxtail, Green plant response rating ([11]; 125 g ai/ha) | Barnyardgrass plant response rating ([12]; 125 g ai/ha)
70: Plant response rating (0 to 100 scale), Ryegrass, It. ([6]; 125 g ai/ha)
0: Plant response rating (0 to 100 scale), Foxtail, Green ([1]; 31 g ai/ha) | Plant response rating (0 to 100 scale), Foxtail, Green ([1]; 125 g ai/ha) | Plant response rating (0 to 100 scale), Barnyardgrass ([2]; 31 g ai/ha) | Plant response rating (0 to 100 scale), Barnyardgrass ([2]; 125 g ai/ha) | Plant response rating (0 to 100 scale), Kochia ([3]; 31 g ai/ha) | Plant response rating (0 to 100 scale), Kochia ([3]; 125 g ai/ha) | Plant response rating (0 to 100 scale), Pigweed ([4]; 31 g ai/ha) | Plant response rating (0 to 100 scale), Ragweed ([5]; 31 g ai/ha) | Plant response rating (0 to 100 scale), Ragweed ([5]; 125 g ai/ha) | Barnyardgrass plant response rating (0 to 100 scale, 0 is no effect, 100 is complete control) [7] | Ducksalad plant response rating (0 to 100 scale, 0 is no effect, 100 is complete control) [8] | Rice plant response rating (0 to 100 scale, 0 is no effect, 100 is complete control) [9] | Sedge, Umbrella plant response rating (0 to 100 scale, 0 is no effect, 100 is complete control) [10] | Foxtail, Green plant response rating ([11]; 31 g ai/ha) | Barnyardgrass plant response rating ([12]; 31 g ai/ha) | Blackgrass plant response rating ([13]; 31 g ai/ha) | Blackgrass plant response rating ([13]; 125 g ai/ha) | Corn plant response rating ([14]; 31 g ai/ha) | Corn plant response rating ([14]; 125 g ai/ha) | Kochia plant response rating ([16]; 31 g ai/ha) | Kochia plant response rating ([16]; 125 g ai/ha) | Pigweed plant response rating ([17]; 31 g ai/ha) | Pigweed plant response rating ([17]; 125 g ai/ha) | Ragweed plant response rating ([18]; 31 g ai/ha) | Ragweed plant response rating ([18]; 125 g ai/ha) | Wheat plant response rating ([20]; 31 g ai/ha) | Wheat plant response rating ([20]; 125 g ai/ha)
40: Plant response rating (0 to 100 scale), Pigweed ([4]; 125 g ai/ha)
100: Galium plant response rating ([15]; 125 g ai/ha)

From patent publication US10750743B2, “Pyridazinone herbicides” (E.I. DU PONT DE NEMOURS AND COMPANY, priority 2015, dated 2020)
